The target in test [1] is T1, angiotensin II receptor (Bos taurus, UniProt P25104).
T1 construct: Bovine adrenal gland cortices (AGC), which have been freshly removed and carefully freed from gland medulla; from tissue; host or cells: bovine adrenal gland cortex, partially purified membrane fractions
T1 sequence (P25104 1-359): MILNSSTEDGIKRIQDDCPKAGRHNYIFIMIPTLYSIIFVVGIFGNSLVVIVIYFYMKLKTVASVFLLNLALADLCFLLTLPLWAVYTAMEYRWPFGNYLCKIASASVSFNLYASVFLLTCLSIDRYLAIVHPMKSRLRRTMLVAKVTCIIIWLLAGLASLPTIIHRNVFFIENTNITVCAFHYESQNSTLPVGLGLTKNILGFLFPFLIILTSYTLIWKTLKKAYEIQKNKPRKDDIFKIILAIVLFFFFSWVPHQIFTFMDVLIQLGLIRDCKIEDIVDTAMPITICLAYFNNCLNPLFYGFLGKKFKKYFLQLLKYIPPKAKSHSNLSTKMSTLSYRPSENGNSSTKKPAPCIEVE
Description: Angiotensin II receptor binding (3H-angiotensin II) in membrane fractions of bovine adrenal gland cortex. The settings on record: bovine adrenal gland cortex membranes, 3H-angiotensin II 3-5 nM, 60 min, room temperature. How it is done:
Bovine adrenal gland cortices (AGC), which have been freshly removed and carefully freed from gland medulla, are comminuted in sucrose solution (0.32 M) with the aid of an Ultra-Turrax (Janke & Kunkel, Staufen i.B.) to give a coarse membrane homogenate and partially purified in two centrifugation steps to give membrane fractions. The receptor binding investigations are carried out on partially purified membrane fractions of bovine AGC using radioactive angiotensin II in an assay volume of 0.25 ml, which specifically contains the partially purified membranes (50-80 μg), ^3 H-angiotensin II .(3-5 nM), test buffer solution (50 mMTris, pH 7.2, 5 mM MgCl2) and the substances to be investigated. After an incubation time of 60 min at room temperature, the unbound radioactivity of the samples is separated by means of moistened glass fibre filters (Whatman GF/C) and the bound radioactivity is measured […] in a scintillation cocktail after washing the protein with ice-cold buffer solution (50 mM Tris/HCl, pH 7.4, 5% PEG 6000). The analysis of the raw data was carried out using computer programs to give Ki or IC50 values (Ki : IC50 values corrected for the radioactivity used; IC50 values: concentration at which the substance to be investigated causes a 50% inhibition of the specific binding of the radioligand).

Test [2] has as its system isolated rabbit aorta rings, contraction induced by angiotensin II. As to the kind of experiment: Inhibition of vascular contraction induced by angiotensin II (AII) in isolated rabbit aorta rings in vitro. The conditions noted are these: based on 3rd = submaximal agonist concentration, read-out: IC50 against contractions induced by AII. How it is done:
Rabbits of either sex are stunned by a blow to the back of the head and bled out, or in some cases anaesthetized with Nembutal (about 60-80 mg/kg i.v.) and sacrificed by opening the thorax. The thorax aorta is removed, freed from adhering connective tissue, divided into ring segments 1.5 mm wide and individually transferred under an initial loading of about 3.5 g to 10 ml organ baths containing Krebs-Henseleit nutrient solution, which is temperature-controlled at 37° C. and aerated with 95% 02/5 % CO2, of the following composition: 119 mmol/l of NaCl; 2.5mmol/l of CaCl2 ×2H2 O; 1.2 mmol/1 of KH2 PO4; 10mmol/l of glucose; 4.8 mmol/l of KCl; 1.4 mmol/l of MgSO4 ×H2 O and 25 mmol/1 of NaHCO3.
The contractions are detected isometrically by Statham UC2 cells by means of bridge amplifiers (ifd Milheim or DSM Aalen) and digitalised and assessed by means of A/D converters (System 570, Keithley Munich). Agonist dose response curves (DRC) are plotted hourly. With each DRC, 3 or 4 individual concentrations are applied to the baths at a 4 min interval. After the end of the DRC and subsequent washing-out cycles (16 times in each case about 5 sec/min with the abovementioned nutrient solution), a 28-minute rest or incubation phase follows, during which the contractions as a rule reach the staring value again.
The height of the 3rd DRC, in a normal case, is used as a reference variable for the assessment of the test substance to be investigated in further runs, which is applied to the baths in the following DRCs in increasing doses in each case at the start of the incubation period. Each aorta ring is in this case stimulated for the whole day, always with the same agonist.
For the calculation of the IC50 (concentration at which the substance to be investigated causes a 50% inhibition), the effect is in each case based on the 3rd =submaximal agonist concentration.

The test system of test [3] is smooth muscle cells. As to the kind of experiment: Inhibition of the proliferation of smooth muscle cells (3H-thymidine incorporation). The test is classed as cell-based. The conditions noted are these: Sus scrofa, 10^-6 M, smooth muscle cells from pig aortas. How it is done: To determine the antiproliferative action of the compounds, smooth muscle cells are used which are obtained from aortas of pigs by the media explant technique [R.Ross, J. Cell. Biol. 50, 172, 1971]. The cells are inoculated into suitable culture dishes, as a rule 96-hole plates, and cultured in 5% CO2 at 37° C. for 2-3 days in medium 199 containing 7.5% FCS and 7.5% NCS, 2 mmol L-glutamine and 15 mmol HEPES, pH 7.4. The cells are then synchronised by withdrawal of serum for 2-3 days and then stimulated into growth with serum or other factors. Test compounds are simultaneously added. After 16-20 hours, 1 μCi ^3 H-thymidine is added and after a further 4 hours the incorporation of this substance into the TCA-precipitatable DNA of the cells is determined.
To determine the IC50 values, the active compound concentration is calculated which on sequential dilution of the active compound causes half-maximal inhibition of the thymidine incorporation produced by 1% FCS.
On the technique in general: Uptake of a labelled nucleoside into DNA is a usual measure of proliferation.

Each structure is given as a SMILES string.

One may read the Ki as a measure of affinity in units of concentration, obtained from inhibition or displacement. A lower Ki goes with higher affinity. One may read the IC50 as the concentration that inhibits the measured activity by half. Turning to `CCCCc1nc(Cl)c(CO)n1Cc1ccc(/C(=C\C(=O)O)c2ccccc2)cc1` [Example 30], in test [1], the Ki was 340 nM. Also, the IC50 in test [2] came out at 580 nM.

Take `CCCCc1nc(Cl)c(CO)n1Cc1ccc(C(CC(=O)O)c2ccccc2)cc1` (centres unmarked) [Example 36]: in test [1], the Ki came to 150 nM.

A word on the inhibition: it is how much of the control response was suppressed. The low end stands for a response near the control, the high end for a response far below the control. In the case of `CCCCc1nc(Cl)c(C=O)n1Cc1ccc(/C(=C/C(=O)NS(=O)(=O)c2ccc(C)cc2)c2ccccc2)cc1` [Example 39], in test [3], the inhibition at 1 µM was 59%.

Compound `CCCCc1nc(Cl)c(C=O)n1Cc1ccc(/C(=C\C(=O)NS(=O)(=O)c2ccc(C)cc2)c2ccccc2)cc1` [Example 40] gave an inhibition at 1 µM in test [3] of 57%.

Compound `CCCCc1nc(Cl)c(C=O)n1Cc1ccc(/C(=C/C(=O)O)c2ccccc2)cc1` [Example 31] came in with a Ki in test [1] of 310 nM. In test [2], the IC50 worked out at 360 nM.

Regarding `CCCCc1nc(Cl)c(C=O)n1Cc1ccc(C(CC(=O)O)c2ccccc2)cc1` (centres unmarked) [Example 35], the IC50 in test [2] was 650 nM.

On to `CCCCc1nc(Cl)c(C=O)n1Cc1ccc(C(CC(=O)O)C2CCCC2)cc1` (centres unmarked) [Example 37], for which, in test [1], the Ki is 190 nM.

For `CCCCc1nc(Cl)c(CO)n1Cc1ccc(C(CC(=O)OC(C)(C)C)c2ccccc2)cc1` (centres unmarked) [Example 18], 1 µM produced 90% inhibition in test [3].

On to `CCCCc1nc(Cl)c(CO)n1Cc1ccc(C(=CC(=O)NC(CO)c2ccccc2)c2ccccc2)cc1` (centres unmarked) [Example 20], for which the IC50 in test [2] was 360 nM.

For the origin of these results see US5414008A, “Imidazolyl-substituted phenylpropionic and cinnamic acid derivatives” (Bayer Aktiengesellschaft, priority 1992, dated 1995).
